The results in this text go back to PubChem BioAssay (NCI).

Values joined by “and” are separate entries in the source; they are usually repeats but may differ in a detail not shown here. Identical values can stand only once.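 Where inhibition never reached the appropriate level, the endpoint shown equals the highest concentration tested. Otherwise, values were interpolated linearly from a five-concentration, 48-hour dose response in 96-well plates. At the GI50, growth is halved. TGI is the concentration that stops growth completely.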 Some results are limits rather than exact numbers.

Holding throughout (experiment): inhibition of tumour cell growth, NCI panel, 48 h
For assay [1], the system named is HOP-92 NSCLC.
The subject of assay [2] is LOX IMVI melanoma.
The test system of assay [3] is MCF7 breast.
The test system of assay [4] is MDA-MB-435.
In assay [5] the test system is OVCAR-4 ovarian.
Assay [6] has as its system SF-268 CNS.
Assay [7] deals with SK-MEL-2 melanoma.
Assay [8] has as its system SK-MEL-28 melanoma.
For assay [9], the system named is SR leukemia.
Assay [10] has as its system SW-620 colon.

Regarding `COC(=O)[C@@H](C)C[C@H](Cc1ccccc1)NC(=O)c1csc([C@@H](C[C@H](C(C)C)N(C)C(=O)[C@@H](NC(=O)[C@H]2CCCCN2C)C2CC2)OC(C)=O)n1`, the TGI in [1] was more than 16.5 µM; in assay [2], more than 16.5 µM; in [3] it was more than 16.5 µM; in [4], less than 0.00165 µM; in assay [5] it was more than 16.5 µM; in assay [6], more than 16.5 µM. For the same molecule, the TGI in assay [9] and in [10] was more than 16.5 µM in each case. Also, the GI50 in assay [2] is 0.000562 µM and 0.00165 µM; in assay [4], less than 0.00165 µM; in assay [5] it was 0.00909 µM and 0.006 µM; in [6], 0.000594 µM and 0.00165 µM; in assay [7] it was 0.000344 µM; in [8], 0.000934 µM. Also, the GI50 in [10] was 0.000292 µM and 0.00165 µM.
In the case of `O=C1C(=O)c2cccnc2-c2ncccc21`, the GI50 in assay [1] was 0.175 µM; in [2], 0.06 µM; in [3] it was 0.232 µM; in [4], 0.263 µM; in assay [5] it was 0.139 µM; in [6], 0.224 µM. Besides, the GI50 in [7] is 0.71 µM; in assay [8], 0.472 µM; in [9], 0.0875 µM; in assay [10] it was 0.072 µM. The TGI is 0.618 µM in assay [1]; 0.36 µM in [2]; 0.554 µM in assay [3]; 1.02 µM in assay [4]; 0.268 µM in assay [5]; 1.01 µM in assay [6]. In addition, the TGI in assay [7] turned out to be 2.35 µM; in [8], 1.8 µM; in assay [9] it was 1.08 µM; in assay [10], 1.12 µM.
On to `CCN(CC)c1ccc(C(=O)c2ccc(N(CC)CC)cc2)cc1`, for which the GI50 in [1] was 0.776 µM; in [2], 0.62 µM; in [3], 0.416 µM; in assay [4] it was 0.0694 µM; in assay [5], 2.14 µM; in assay [6], 0.666 µM. The GI50 is 0.493 µM in assay [7], 23.1 µM in [8], 0.127 µM in assay [9] and 0.326 µM in [10]. The TGI in assay [1] is 10.9 µM; in assay [2], 28.3 µM; in assay [3] it was more than 74.4 µM; in assay [4], 0.43 µM; in assay [5], more than 100 µM; in assay [6], more than 35.9 µM. Besides, the TGI in [7] was 14.9 µM; in assay [8], more than 100 µM; in assay [9] it was more than 100 µM; in [10] it was 17 µM.
Consider `S=P(N1CC1)(N1CC1)N1CC1`, for which the GI50 was 25.2 µM and 168 µM in assay [1]; 7.14 µM and 54.5 µM in assay [2]; 276 µM in [4]; 8.67 µM and 24.8 µM in assay [6]; 34.7 µM in assay [8]. Further, the TGI in assay [1] was 50.2 µM and 376 µM and 345 µM; in assay [2] it was 42 µM and 307 µM and 294 µM; in assay [3], 311 µM and 550 µM; in assay [4], 403 µM and 509 µM; in assay [6], 60.6 µM and 536 µM and 476 µM; in [8] it was 72.6 µM and 574 µM. For the same molecule, in assay [9], the TGI was > 51.4 µM and 441 µM.
Take `C=CC(Cl)(CBr)CCC(Br)C(C)(C)Cl` (stereo not given): the TGI in assay [1] is 39.8 µM; in assay [3] it was 20.1 µM; in assay [4], 30.3 µM; in [5], 34.1 µM; in assay [6] it was 48.4 µM; in assay [7] it was 37.5 µM. Also, the TGI in assay [8] was 33.1 µM; in [10], 26.2 µM.
`CC(C)=CC1=C2C3=C(C(=O)C4(O)Oc5c(C)c6c7c(c5OC24C)[C@@H](C)CC[C@@H]7[C@@H](C)C[C@H]6C=C(C)C)C(C)CCC3C(C)C1` (stereo not given in full): the GI50 in [2], in assay [3], in [4], in assay [5], in assay [6] and in assay [7] was more than 100 µM in each case. Further, the figures for the GI50 in [8], in assay [9] and in [10] were 8.82 µM, more than 100 µM and more than 100 µM, respectively. Also, the TGI in assay [2], in assay [3], in [4], in assay [5], in assay [6] and in [7] was more than 100 µM throughout. The TGI in assay [8], in assay [9] and in [10] was more than 100 µM in each case.
Take `C[N+]1=C(/C=C\C=C\c2ccccc2)C(C)(C)c2ccccc21`: the GI50 was 2.35 µM in assay [1]; 1.31 µM in [2]; 2.48 µM in [3]; 2.01 µM in assay [4]; 2.69 µM in [5]; 3.33 µM in [6]. The GI50 in assay [7] is 1.69 µM; in assay [8], 1.53 µM; in [9], 0.925 µM; in assay [10], 1.38 µM. In addition, the TGI is 6.77 µM in [1]; 2.7 µM in assay [2]; 11 µM in [3]; 5.17 µM in assay [4]; 13.8 µM in [5]; 12.1 µM in assay [6]. The TGI amounted to 4.31 µM in [7], 3.46 µM in [8], 4.31 µM in [9] and 4.08 µM in assay [10].
`O=C1c2ccccc2-c2c1c1ccccc1c(=O)n2CCCn1ccnc1`: the GI50 was 1.83 µM in assay [1]; 0.924 µM in assay [2]; 0.902 µM in assay [3]; 2.74 µM in assay [4]; 2.29 µM in [5]; 3.64 µM in assay [6]. Moreover, the GI50 in [7] is 7.78 µM; in assay [8] it was 3.47 µM; in assay [10], 0.949 µM. The TGI was 6.45 µM in [1]; 4.33 µM in assay [2]; more than 100 µM in assay [3]; 10.7 µM in assay [4]; more than 100 µM in assay [5]; more than 100 µM in assay [6]. Moreover, the TGI is more than 100 µM in [7], more than 100 µM in assay [8] and 30.2 µM in assay [10].
Take `CCOC(=O)c1c2c(n3ccccc13)C(=O)c1ncccc1C2=O`: the GI50 was 0.279 µM in assay [1]; 0.0413 µM in [2]; 0.0284 µM in [3]; 0.194 µM in assay [4]; 0.687 µM in assay [5]; 0.0474 µM in assay [6]. The GI50 in assay [7] was 8.23 µM; in [8] it was 0.134 µM; in assay [9], 0.0159 µM. The TGI turned out to be 28.9 µM in assay [1]; 1.78 µM in assay [2]; 1.77 µM in [3]; 16.4 µM in assay [4]; 12.3 µM in assay [5]; 23.3 µM in [6]. Also, the TGI in assay [7] is 90.3 µM; in assay [8], 33.3 µM; in assay [9] it was more than 100 µM.
Regarding `N#C/C(=C\c1ccc(Br)cc1)n1nnc2ccc(F)cc21`, the GI50 in assay [2] was 0.347 µM; in assay [3], 0.372 µM; in assay [4] it was 0.19 µM; in assay [5] it was 0.939 µM; in [6] it was 1.84 µM; in assay [7], 1.56 µM. The GI50 in assay [8] is 1.29 µM; in assay [9], 0.348 µM; in assay [10] it was 0.447 µM. Moreover, the TGI in [2] was 1.28 µM; in [3], 2.85 µM; in assay [4], 0.403 µM; in assay [5], 5.31 µM; in assay [6] it was 4.33 µM; in [7], 4.98 µM. Also, the TGI was 3.25 µM in [8], more than 100 µM in [9] and 2.34 µM in assay [10].
Turning to `C=C(Br)CNC(=O)CCC(=O)NCC(=C)Br`, the TGI in assay [2], in assay [3], in assay [4], in assay [5], in [6] and in assay [7] was more than 100 µM in each case. For the same molecule, the TGI in [8], in [9] and in assay [10] was more than 100 µM in each case.
Consider `CO/N=C(\C)CCC#Cc1ccccc1C(=O)OC`, for which the TGI in assay [2], in assay [3], in assay [4], in assay [5], in assay [6] and in [7] was more than 10 µM throughout. Further, the TGI in assay [8], in [9] and in assay [10] was more than 10 µM throughout.
Turning to `COc1ccc(-c2ccc(-c3ccc(C(=N)N)o3)o2)cc1`, the GI50 in assay [2] was 1.46 µM; in assay [3], 0.325 µM; in assay [4], 0.293 µM; in assay [5], 2.22 µM; in assay [6], 2.04 µM; in assay [7] it was 5.71 µM. In addition, the GI50 in assay [8] is 1.67 µM; in [9] it was 0.417 µM; in assay [10], 0.532 µM. For the same molecule, the TGI was determined as 2.96 µM in assay [2]; 1.57 µM in [3]; 1.12 µM in assay [4]; 12.2 µM in [5]; 7.22 µM in [6]; 21.7 µM in [7]. In addition, the values for the TGI in assay [8], in assay [9] and in [10] were 3.66 µM, 2.79 µM and 2.43 µM, respectively.
Regarding `COc1cccc(/C=N/C(/N=C/c2cccc(OC)c2O)c2cccc(OC)c2O)c1O`, the TGI in assay [1] is more than 100 µM; in [2], 58 µM; in [3], 62.8 µM; in assay [4], more than 100 µM; in assay [6], 42.5 µM; in assay [7], 43.2 µM. Besides, the TGI in assay [8] is more than 100 µM; in assay [9] it was 35.1 µM; in assay [10] it was more than 100 µM.
`Oc1ccc2oc3ncc(Br)c(-c4ccccc4)c3c2c1`: the GI50 in assay [1], in assay [2], in [3], in [4], in [6] and in [7] was more than 100 µM in each case. Further, the results for the GI50 in assay [8], in [9] and in assay [10] were more than 100 µM, 30.4 µM and more than 100 µM, respectively. In addition, the TGI in assay [1], in [2], in assay [3], in [4], in assay [6] and in assay [7] was more than 100 µM in each case. Moreover, the TGI in assay [8], in assay [9] and in assay [10] was more than 100 µM throughout.
As to `Cc1ccc(O)c(NC(=O)c2ccc(CNc3ccnc(C(F)(F)F)c3)cc2)c1`, the GI50 in [1] was 5.11 µM; in assay [2], 5.64 µM; in assay [3], 4.06 µM; in [4] it was 4.26 µM; in [5], 26.7 µM; in assay [6] it was 10.8 µM. Further, the figures for the GI50 in assay [8], in assay [9] and in assay [10] were 13.8 µM, 5.1 µM and 8.7 µM, respectively. The TGI in assay [1] was 29.8 µM; in assay [2] it was 31.4 µM; in assay [3], 38.9 µM; in [4] it was 22.1 µM; in assay [5], more than 100 µM; in [6], 38 µM. For the same molecule, the results for the TGI in [8], in [9] and in assay [10] were 39.9 µM, 30 µM and 42.4 µM, respectively.
With `COc1cc(C2CC(c3ccc(Nc4ccnc5cc(Cl)ccc45)cc3)=NN2c2ccc(Cl)cc2)cc(OC)c1OC` (stereo not given), the GI50 was 1.64 µM in [1]; 1.66 µM in assay [2]; 0.86 µM in assay [3]; 0.329 µM in assay [4]; 5.49 µM in [6]; 2.35 µM in assay [7]. The GI50 in [8] was 2.66 µM; in assay [9] it was 1.2 µM; in [10], 2.55 µM. Moreover, the TGI was more than 100 µM in [1]; 11.3 µM in assay [2]; more than 100 µM in assay [3]; 2.05 µM in assay [4]; more than 100 µM in [6]; 6.6 µM in assay [7]. Further, the TGI in assay [8] was 55.9 µM; in [9], 56.3 µM; in [10] it was more than 100 µM.
For the molecule `COC(=O)/C=C/c1cc2c(cc1-c1c(C(=O)O)cc(OC)c(OC)c1OC)OCO2`, the TGI in assay [1], in assay [2], in assay [3], in assay [4], in assay [5] and in assay [6] was more than 10 µM throughout. The TGI in assay [8], in assay [9] and in assay [10] was more than 10 µM in each case.
